Test results reported in PubChem BioAssay (NCI).
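Values below derive from 48-hour exposures of cells grown in 96-well plates, with endpoints linearly interpolated between the two concentrations bracketing the appropriate inhibition level. TGI is the concentration that stops growth completely.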

How the values were obtained:
Test in all cases: NCI-60 cell line screen, 48 h
A549 NSCLC = test system: A549 NSCLC
NCI-H522 lung = test system: NCI-H522 lung
MDA-MB-231 breast = test system: MDA-MB-231 breast
786-0 renal = test system: 786-0 renal
NCI-H460 lung = test system: NCI-H460 lung
MDA-MB-435 = test system: MDA-MB-435
EKVX NSCLC = test system: EKVX NSCLC
RPMI-8226 leukemia = test system: RPMI-8226 leukemia
UACC-62 melanoma = test system: UACC-62 melanoma
HOP-92 NSCLC = test system: HOP-92 NSCLC
TK-10 renal = test system: TK-10 renal
MDA-N = test system: MDA-N
SF-268 CNS = test system: SF-268 CNS
SF-539 CNS = test system: SF-539 CNS
SNB-75 CNS = test system: SNB-75 CNS
CCRF-CEM leukemia = test system: CCRF-CEM leukemia
SK-MEL-2 melanoma = test system: SK-MEL-2 melanoma
SK-MEL-28 melanoma = test system: SK-MEL-28 melanoma

Measured: TGI

CCOC(=O)[C@@H]1ON2O[C@H](OC3CCCCC3c3ccccc3)C[C@H]3OC(=O)[C@@H]1C32 (some centres not stated)
0.614 µM: CCRF-CEM leukemia
not listed: SK-MEL-2 melanoma | SK-MEL-28 melanoma
> 100 µM: all other assays above

O=C1NC(=S)NC(=O)C1=Cc1ccc(-c2ccccc2)cc1
not listed: NCI-H522 lung | SNB-75 CNS | SK-MEL-28 melanoma
> 100 µM: all other assays above

NC(=O)c1nnsc1NN=O
not listed: HOP-92 NSCLC | TK-10 renal
> 100 µM: all other assays above

CCOC(=O)c1sc2c(c1O)c(=O)n(-c1ccccc1)c(=S)n2-c1ccccc1
not listed: EKVX NSCLC | SF-539 CNS
> 100 µM: all other assays above

Cc1nc(C)c(N2CCN(C(=O)O)CC2)c(=O)[nH]1
not listed: SNB-75 CNS | SK-MEL-2 melanoma
> 100 µM: all other assays above

CN(C)/C=N\c1nncc2[nH]cnc12
not listed: MDA-MB-231 breast | NCI-H460 lung | SF-268 CNS
> 100 µM: all other assays above

COC(=O)c1nn2ccc3ccccc3c2c1C(=O)OC
not listed: RPMI-8226 leukemia | CCRF-CEM leukemia
> 100 µM: all other assays above

CSc1nn(C)cc2nc(C)nc1-2
not listed: NCI-H522 lung | HOP-92 NSCLC
> 100 µM: all other assays above

CCOC(=O)N(C)C(=C(F)F)C(F)(F)F
97.8 µM: TK-10 renal
72 µM: 786-0 renal
44.5 µM: SK-MEL-2 melanoma
84.2 µM: MDA-MB-231 breast
93.1 µM: SNB-75 CNS
78.3 µM: SF-539 CNS
49 µM: RPMI-8226 leukemia
89.2 µM: EKVX NSCLC
46.2 µM: MDA-MB-435
> 100 µM: A549 NSCLC | NCI-H460 lung | SK-MEL-28 melanoma
40.2 µM: MDA-N
75.8 µM: CCRF-CEM leukemia
97.4 µM: SF-268 CNS
65.2 µM: HOP-92 NSCLC

O=C(Cn1c(=O)oc2ccc(C(=O)c3ccc(F)cc3)cc21)c1ccccc1
not listed: EKVX NSCLC
> 100 µM: all other assays above

Cc1cccc(/C=N\NC(=S)N2CCCCC2)n1
0.225 µM: CCRF-CEM leukemia
3.81 µM: UACC-62 melanoma
0.788 µM: NCI-H460 lung
20.8 µM: 786-0 renal
0.502 µM: RPMI-8226 leukemia
9.32 µM: SNB-75 CNS
not listed: MDA-MB-231 breast | TK-10 renal | SF-539 CNS
> 100 µM: all other assays above

COc1cc(COC(=O)N2CC=CC2C(=O)O)c([N+](=O)[O-])cc1OC (configuration not stated)
not listed: NCI-H522 lung | MDA-MB-231 breast | SK-MEL-2 melanoma
> 100 µM: all other assays above

CCN(CC)c1ccc(C2Nc3ccc4ccccc4c3C3=C2C(=O)CCC3)cc1 (configuration not stated)
50.8 µM: MDA-MB-231 breast
50.5 µM: SNB-75 CNS
28.1 µM: SF-539 CNS
76.8 µM: 786-0 renal
not listed: NCI-H522 lung | HOP-92 NSCLC | TK-10 renal
> 100 µM: all other assays above

O=C(c1ccccc1)c1ccc2c(c1)nc1n2C(c2c(F)cccc2F)SC1 (configuration not stated)
55.1 µM: MDA-N
62.4 µM: SK-MEL-2 melanoma
99 µM: SNB-75 CNS
72.2 µM: UACC-62 melanoma
84.5 µM: EKVX NSCLC
not listed: CCRF-CEM leukemia
> 100 µM: all other assays above

COc1cccc(C=C2N=C(c3ccccc3)N(n3c(-c4ccccc4)nc4ccccc4c3=O)C2=O)c1
62.1 µM: NCI-H522 lung
not listed: HOP-92 NSCLC | SK-MEL-2 melanoma
> 100 µM: all other assays above
